Tested on: Human peripheral blood mononuclear cell (PBMC) cultures
Experiment: CD69 and CD25 expression in human PBMC cultures, direct effects
Assay type: cell-based
Details: direct effect, 24 hours, vs untreated control; extract at the highest dose
Description: Next, the immune-modulating effects of the extract were tested. Human peripheral blood mononuclear cell (PBMC) cultures were used for this testing. A set of cultures were left untreated as negative control cultures for immune activation. Triplicate sets of cultures were treated with serial dilutions of the test product. The inflammatory bacterial lipopolysaccharide LPS from E. coli was used as a positive control for activation. The cultures were incubated for 24 hours, after which the cells and the culture supernatants were harvested and used to monitor the reactions in each culture. The cells were used for immunostaining and flow cytometry, specifically to evaluate the induction of two activation markers, CD69 and CD25, on NK cells, NKT cells, T lymphocytes, and monocytes/macrophages.

Which “CD69 expression on NK cells” value does the source give for Poly I:C here?
The value was “increase”.

Reference: patent publication US20230084354A1, “NUTRACEUTICAL EXTRACTS OF HIPPOPHAE RHAMNOIDES AND TERMINALIA CHEBULA AND USES THEREOF” (Biomics, LLC, priority 2020, published 2023)
